A short description of the assay: Binding to the recombinant human alpha1 receptor (prazosin [3H], CHO cell membranes).

Each structure is given as a SMILES string.

In general, Ki refers to a dissociation constant, usually derived from enzyme kinetics or from competition with a known ligand.

Description: The bound fraction was separated by filtration and washing in cooled TRIS+NaCl+KCl buffer. […] The bound fraction was separated by filtration and washing in cooled TRIS+NaCl+KCl buffer. […] The bound fraction was separated by filtration and washing in cooled TRIS buffer.

In the case of `CCN(CC)C(=O)C1(c2ccccc2)CC1CN` (centres unmarked) [dextromilnacipran], the Ki is 3.4 µM.

`CCN(CC)C(=O)[C@@]1(c2ccccc2)C[C@H]1CN` [levomilnacipran]: the Ki stood at 110 µM.
